Measurements from US10196357B2, “Biaryl compositions and methods for modulating a kinase cascade” (Athenex, Inc., priority 2007, dated 2019).
Values joined by “and” are separate entries in the source; they are usually repeats but may differ in a detail not shown here. Equal values may be shown once.

What was measured:
[1] = plasma exposure after oral administration; assay type: in vivo, male CD-1 mice; conditions: Male CD-1 mice
Procedure: Plasma concentrations were measured in mice after oral administration. All doses were formulated in purified water. Four groups of male CD-1 mice were dosed after an overnight fast and fed 4 hours post-dose. Dosing was as follows:
Protein was precipitated with 0.25 mL acetonitrile for plasma, 0.25 mL for brain. After centrifugation, supernatant was directly injected into an LC/MS system. The limit of quantitation was 1 ng/mL using a 50 μL aliquot for plasma and a 50 μL, aliquot for brain. The standard curve was 1 to 1,000 ng/mL for both plasma and brain. HPLC conditions were as follows:
HPLC System: Shimadzu SCL-10 System
• Analytical Column: Aquasil C18 5 μm 100×2 mm column. • Column Temperature: Ambient temperature • Autosampler Temperature: Ambient temperature • Mobile Phase A) 10 mM Ammonium formate in water (pH 4). • B) Acetonitrile. • Flow Rate: 0.6 mL/min • Injection Volume: 2 μL • Gradient:
• Mass Spectrometry Conditions were as follows: • Instrument: ABI Sciex API 4000 • Mode: ESI+ • Experiment: MRM (multiple reaction monitoring) • Transitions: KX2-391: m/z 432.4→114.2 (Rt=3.11 minute) • KX2-361: m/z 406.1→253.2 (Rt=3.33 minute)

[2] = system: GL261 glioma cells; assay: intracranial GL261 glioma survival study; assay type: in vivo, C57BL/6 mice; conditions: for Median survival / survival Range: C57BL/6 mice, intracranial GL261
Procedure: A brain tumor mouse xenograft study was conducted comparing KX2-361 and KX2-391 (KXO1) to Temodar®. The studies were conducted in C57BL/6 mice. GL261 glioma cells (1×10^5 in 5 μl DMEM) were implanted intracranial coordinates: bregma, lateral 2.0 mm, anterior 1.2 mm, 3.0 mm depth dura. Treatment was initiated 3 days post implantation. The groups were as follows (all doses in 100 μl H2O):
The median survival range and the log-rank (Mantel-Cox) statistical test results comparing the survival distributions of the samples.

[3] = system: HCT116; assay: MTT growth inhibition, Dasatinib-resistant HCT116; assay type: cell-based, human; conditions: HCT116, 8.0×10^3 cells/well, […] FBS, 78 Hr
Procedure: Cell proliferation/growth inhibition was assessed using MTT colorimetric assay.
On Day 3, 10 μL MTT (5 mg/mL) was added to each well. Cells were then incubated in the presence of MTT for 4 hours at 37° C., appropriate CO2 conditions. After this incubation period, 90 μL 10% SDS(+HCl) was added to each well to lyse cells and solubilize formazan. Cells were then incubated overnight at 37° C., appropriate CO2 conditions.
The OD570 was measured using microplate reader. Growth inhibition curves and EC50/IC50 was determined using GraphPad Prism 4 statistical software.

[4] = system: SW1088; assay: brain tumor cell growth inhibition, SW1088; assay type: cell-based, Human; conditions: SW1088, astrocytoma; read-out: IC50 (title: GI50)
[5] = system: MOLT-4 (Adult lymphoblastic leukemia); assay: growth inhibition, MOLT-4; assay type: cell-based, Human
[6] = system: ACHN; assay: renal tumor cell growth inhibition, ACHN; assay type: cell-based, Human; conditions: renal cell adenocarcinoma
Procedure: These GI50s were determined using standard tumor growth inhibition assays, similar to those described in detail in this Example 7.

[7] = system: GL261; assay: brain tumor cell growth inhibition, GL261; assay type: cell-based; conditions: GL261, mouse glioblastoma; read-out: IC50 (title: GI50)
[8] = system: Ba/F3 (IL-3 induced); assay: MTT growth inhibition, Ba/F3 + IL-3; assay type: cell-based; conditions: 96 hrs, read-out: GI50
[9] = system: MDA231 (Breast); assay: growth inhibition (BrdU), MDA231; assay type: cell-based, Human; conditions: MDA231 (Breast) cells
Source text: (§1) Growth Inhibition. […] T1 values≤T0 values were designated as T, cytotoxicity.

[10] = target: isolated Src (Homo sapiens, UniProt P12931); assay: titration against isolated Src; assay type: biochemical; conditions: titration data
Chain of isolated Src (P12931 whole entry): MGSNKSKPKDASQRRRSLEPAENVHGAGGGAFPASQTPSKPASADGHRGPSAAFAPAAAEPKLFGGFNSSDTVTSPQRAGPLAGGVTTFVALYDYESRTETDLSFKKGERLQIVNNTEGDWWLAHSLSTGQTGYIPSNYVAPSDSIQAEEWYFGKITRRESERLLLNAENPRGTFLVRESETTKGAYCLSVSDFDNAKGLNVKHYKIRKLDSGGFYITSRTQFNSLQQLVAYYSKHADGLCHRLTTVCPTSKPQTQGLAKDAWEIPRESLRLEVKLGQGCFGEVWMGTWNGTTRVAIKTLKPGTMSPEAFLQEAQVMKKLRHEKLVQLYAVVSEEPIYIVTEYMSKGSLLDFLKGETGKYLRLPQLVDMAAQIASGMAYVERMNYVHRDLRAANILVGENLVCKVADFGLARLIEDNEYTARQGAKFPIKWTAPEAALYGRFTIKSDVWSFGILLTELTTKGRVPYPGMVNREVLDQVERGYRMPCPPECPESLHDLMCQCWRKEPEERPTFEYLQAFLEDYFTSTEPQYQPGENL

[11] = system: Ba/F3 + BCR-Abl E225K mutant; assay: MTT growth inhibition, Ba/F3 + BCR-Abl E225K; assay type: cell-based; conditions: 96 hrs
Source text: Cultures of Ba/F3 cells were also transfected to express wild-type (WT) Bcr-Abl, E255K mutation of Bcr-Abl, or T315I mutation of Bcr-Abl and cultured in 96-well plates in complete media without IL-3. The Ba/F3 cell line is rendered Gleevec resistant when the mutation in the Bcr/Abl tyrosine kinase […] is present. […] All assays are in triplicate.

[12] = system: SKOV-3 (Ovarian); assay: growth inhibition (BrdU), SKOV-3; assay type: cell-based, Human; conditions: SKOV-3 (Ovarian) cells
Source text: as §1

[13] = system: lung cancer cell line A549; assay: tumor growth inhibition, A549; assay type: cell-based, Human; conditions: A549 (Lung) cells
Source text: as §1

[14] = system: JAK2 Y1007/1008; assay: whole cell phosphorylation, JAK2; assay type: cell-based; conditions: whole cells
[15] = system: K562 (CML); assay: growth inhibition (BrdU), K562; assay type: cell-based, Human; conditions: K562 (CML)
Source text: as §1

[16] = single PO dose 10 mg/kg (Group 3), 0 hr
[17] = single PO dose 10 mg/kg (Group 3), 0.5 hr
[18] = single PO dose 10 mg/kg (Group 3), 1 hr
[19] = single PO dose 10 mg/kg (Group 3), 2 hr
[20] = single PO dose 10 mg/kg (Group 3), 5 hr
[21] = single PO dose 50 mg/kg (Group 4), 0 hr
[22] = single PO dose 50 mg/kg (Group 4), 0.5 hr
[23] = single PO dose 50 mg/kg (Group 4), 1 hr
[24] = single PO dose 50 mg/kg (Group 4), 2 hr
[25] = single PO dose 50 mg/kg (Group 4), 5 hr

Question: With `O=C(Cc1ccc(-c2ccc(N3CCOCC3)cc2)cn1)NCc1cccc(F)c1` [KX2-361] as the compound, how does the “KX2-361 Plasma Concentrations, Group A” value [1, 16] read?
Answer: BLQ (BLQ: Below Limit of Quantitation (1 ng/mL))

Question: And the “KX2-361 Plasma Concentrations, Group B” value [1, 16]?
Answer: BLQ (BLQ: Below Limit of Quantitation (1 ng/mL))

Question: What about the “KX2-361 Plasma Concentrations, Group C” value [1, 16] of the same compound?
Answer: BLQ (BLQ: Below Limit of Quantitation (1 ng/mL))

Question: What about the “KX2-361 Plasma Concentrations, Group A” value [1, 17] of the same compound?
Answer: 65.93 ng/mL

Question: And the “KX2-361 Plasma Concentrations, Group B” value [1, 17]?
Answer: 217.56 ng/mL

Question: What about the “KX2-361 Plasma Concentrations, Group C” value [1, 17] of the same compound?
Answer: 159.53 ng/mL

Question: What about the “KX2-361 Plasma Concentrations, Group A” value [1, 18] of the same compound?
Answer: 284.09 ng/mL

Question: What about the “KX2-361 Plasma Concentrations, Group B” value [1, 18] of the same compound?
Answer: 596.31 ng/mL

Question: And the “KX2-361 Plasma Concentrations, Group C” value [1, 18]?
Answer: 398.35 ng/mL

Question: What about the “KX2-361 Plasma Concentrations, Group A” value [1, 19] of the same compound?
Answer: 153.07 ng/mL

Question: And the “KX2-361 Plasma Concentrations, Group B” value [1, 19]?
Answer: 118.96 ng/mL

Question: What about the “KX2-361 Plasma Concentrations, Group C” value [1, 19] of the same compound?
Answer: 342.45 ng/mL

Question: What about the “KX2-361 Plasma Concentrations, Group A” value [1, 20] of the same compound?
Answer: 2.63 ng/mL

Question: What about the “KX2-361 Plasma Concentrations, Group B” value [1, 20] of the same compound?
Answer: 64.15 ng/mL

Question: What about the “KX2-361 Plasma Concentrations, Group C” value [1, 20] of the same compound?
Answer: 53.18 ng/mL

Question: And the “KX2-361 Plasma Concentrations, Group A” value [1, 21]?
Answer: BLQ (BLQ: Below Limit of Quantitation (1 ng/mL))

Question: And the “KX2-361 Plasma Concentrations, Group B” value [1, 21]?
Answer: BLQ (BLQ: Below Limit of Quantitation (1 ng/mL))

Question: And the “KX2-361 Plasma Concentrations, Group C” value [1, 21]?
Answer: BLQ (BLQ: Below Limit of Quantitation (1 ng/mL))

Question: And the “KX2-361 Plasma Concentrations, Group B” value [1, 22]?
Answer: 2316.91 ng/mL

Question: And the “KX2-361 Plasma Concentrations, Group C” value [1, 22]?
Answer: 1587.18 ng/mL

Question: And the “KX2-361 Plasma Concentrations, Group A” value [1, 23]?
Answer: 1805.19 ng/mL

Question: And the “KX2-361 Plasma Concentrations, Group B” value [1, 23]?
Answer: 969.48 ng/mL

Question: What about the “KX2-361 Plasma Concentrations, Group C” value [1, 23] of the same compound?
Answer: 3635.91 ng/mL

Question: What about the “KX2-361 Plasma Concentrations, Group A” value [1, 24] of the same compound?
Answer: 475.13 ng/mL

Question: What about the “KX2-361 Plasma Concentrations, Group B” value [1, 24] of the same compound?
Answer: 1710.13 ng/mL

Question: What about the “KX2-361 Plasma Concentrations, Group C” value [1, 24] of the same compound?
Answer: 1709.02 ng/mL

Question: What about the “KX2-361 Plasma Concentrations, Group A” value [1, 25] of the same compound?
Answer: 138.53 ng/mL

Question: What about the “KX2-361 Plasma Concentrations, Group B” value [1, 25] of the same compound?
Answer: 252.81 ng/mL

Question: What about the “KX2-361 Plasma Concentrations, Group C” value [1, 25] of the same compound?
Answer: 298.99 ng/mL

Question: What about the Median survival ([2]; 15 mg/kg bid oral) of the same compound?
Answer: 30.5

Question: What about the “survival Range” value ([2]; 15 mg/kg bid oral) of the same compound?
Answer: 25-34

Question: And the Median survival ([2]; 30 mg/kg bid oral)?
Answer: 29

Question: What about the “survival Range” value ([2]; 30 mg/kg bid oral) of the same compound?
Answer: 23-32

Question: What about the “survival of mice bearing intracranial GL261 gliomas” value ([2]; orally at 15 mg/kg/dose bid 7 hours apart) of the same compound?
Answer: best results

Question: With `O=C(Cc1ccc(-c2ccc(OCCN3CCOCC3)cc2)cn1)NCc1ccccc1` [KXO1] as the compound, how does the IC50 [3] read?
Answer: 31 nM

Question: What about the IC80 [3] of the same compound?
Answer: 106 nM

Question: And the IC90 [3]?
Answer: 195 nM

Question: And the IC50 [4]?
Answer: 76.1 nM

Question: And the GI50 [5]?
Answer: 13 nM

Question: And the GI50 [6]?
Answer: 33.2 nM

Question: And the IC50 [7]?
Answer: 13.7 nM

Question: What about the GI50 [8] of the same compound?
Answer: 3.5 nM

Question: And the GI50 [9]?
Answer: 20 nM

Question: And the IC50 [10]?
Answer: 46000 nM

Question: What about the GI50 [11] of the same compound?
Answer: 80 nM

Question: And the GI50 [12]?
Answer: 9.8 nM

Question: What about the GI50 [13] of the same compound?
Answer: 9.4 nM and 13 nM

Question: And the “phosphorylation of JAK2 Y1007/1008” value [14]?
Answer: not inhibited

Question: What about the GI50 [15] of the same compound?
Answer: 13 nM
